Where a name gives a salt, the structure may show the parent alone. Read-outs that look alike come from different tables or passages of the source.
How the values were obtained:
[1] = tested on: aldosterone (DCA)-like activity; conditions: cited from earlier work
[2] = tested on: Shay's ulcer (ulcer induced by ligation of the pylorus); experiment: Pylorus ligating method (Shay's ulcer); type: in vivo, male SD-strain rats; parameters: Ulcer index (mean ± standard deviation): scale not given here; conditions: for minimal effective dose: Rattus norvegicus, read-out: positively effective dose
Procedure: (§1) In the following test examples, male SD-strain rats (body weight 200 to 250 g) were used as experimental animals, and a sodium salt of the compound of formula (I) dissolved in distilled water was used as the compound of this invention.
Pylorus ligating method (Shay's ulcer):
Rats, 10 per group, were used, and allowed to fast for 48 hours in separate cages while giving them only water. Pentobarbital sodium was injected intraperitoneally to the rats in a dose of 5 mg per rat. Under anesthesia, the abdomen of each rat was incised, and the portion leading from the pylorus to the duodenum was ligated. Then, the abdomen was sutered. The rats were then left for 19 hours without giving them food and water. Then, under ether anesthesia, the rats were killed by removing the spinal cord. The stomach was excised, and the amount of the gastric juice was measured. The stomach was then cut open along its greater curvature, and placed on a cork plate. The area of an ulcer generated at the anterior stomach was measured by means of an Olympus stereoscope (magnification 10×), and the ulcer index was calculated on the basis of the following criteria.
The test compound of the invention was injected immediately after the ligation, or orally administered 30 minutes before the ligation. To a control group, physiological saline was given at a rate of 1 ml per 100 g of body weight.

[3] = tested on: Delayed-type cellular immunity; experiment: Delayed-type cellular immunity activating action (sheep red blood cells, foot pad thickness); type: in vivo, mice; conditions: day 8
Procedure: Mice, 10 per group, were used. Sheep red blood cells (1.0×10^7) were subcutaneously inoculated in the right foot pad of each mouse. The day of inoculation was taken as day 0, and on the same day, the sodium salt of the compound of formula (I) was administered to the mice intraperitoneally or orally. On day 7, sheep red blood cells (1.0×10^7) were subcutaneously inoculated in the left foot pad of each mouse, and on day 8, the thickness of each foot pad was measured.

[4] = Toxicity (LD50, method of Reed and Muench); conditions: rat, in vivo, rats observed for 7 days
Procedure: The LD50 value was calculated by the method of Reed and Muench.

[5] = tested on: Acetic acid-induced ulcer; experiment: Acetic acid-induced ulcer; type: in vivo, male SD-strain rats; conditions: for Percent inhibition / Ulcer index (mean ± standard deviation): once a day for 10 days; for significance of inhibition: rat, in vivo
Procedure: In the following test examples, male SD-strain rats (body weight 200 to 250 g) were used as experimental animals, and a sodium salt of the compound of formula (I) dissolved in distilled water was used as the compound of this invention. Acetic acid-induced ulcer: Rats, 5 or 10 per group, were used. After they were anesthetized with pentobarbital sodium, the abdomen was incised, and 0.05 ml of 10% acetic acid was injected into the mucous membrane from the serous layer at the boundary portion in the anterior wall between the body of the stomach and the pylorus part. The abdomen was then sutured. Each of the test drugs shown in Table 2 was intraperitoneally or orally administered once a day for 10 consecutive days beginning with the second day after the above operation. On the 15th day after the operation, the stomach was excised and 12 ml of 1% formalin was injected into it. Then, the stomach was dipped in 1% formalin for 10 minutes, and cut open along the greater curvature. The area of an ulcer generated was measured, and the ulcer index was calculated on the basis of the following standard. |0 0 |1-8 1 | 9-24 2 |25-63 3 | 64-120 4 |121-168 5 |>168 6 The tissue respiration activator used was a calf's blood extract preparation administered at a rate of 0.5 ml per 100 g of body weight (this applies to all tissue respiration activators appearing hereinafter).

[6] = tested on: Stress ulcer; experiment: Stress ulcer (water immersion); type: in vivo, male SD-strain rats
Procedure: as §1
(§2) The tissue respiration activator used was a calf's blood extract preparation administered at a rate of 0.5 ml per 100 g of body weight (this applies to all tissue respiration activators appearing hereinafter).
Rats, 5 per group, were used. They were put in wire gauze stress cages (made by Natsume Seisakusho) in an upstanding position. The cages were put in a water bath kept constantly at 23° C., and the rats were immersed to a level of the sternal projection. Each of the drugs shown in Table 3 was administered to the rats intraperitoneally or orally 15 minutes before water immersion. Seven hours after the administration, the rats were knocked out to death. The stomach was excised, and the length of a stress ulcer (erosion) was measured.

[7] = tested on: Indomethacin-induced ulcer; experiment: Indomethacin-induced ulcer; type: in vivo, male SD-strain rats
Procedure: as §1, §2
Indomethacin-induced ulcer:
Rats, 5 per group, were used. They were caused to fast for 24 hours while giving them only water. Then, indomethacin was subcutaneously injected to the rats in a dose of 30 mg/kg. Eight hours later, the rats were killed, and the stomach was excised and treated in the same way as in Test Example 3. The length of the erosion generated was measured. Each of the test drugs shown in Table 4 was administered to the rats intraperitoneally or orally 10 minutes before the administration of iodomethacin.

[8] = oral, 50 mg/kg, P < 0.05 (cetraxate), P < 0.0001 (compound of the invention)
[9] = oral, 300 mg/kg, P < 0.01 (cetraxate), P < 0.001 (compound of the invention)
[10] = oral, 300 mg/kg, P < 0.05 (cetraxate), P < 0.001 (compound of the invention)

In the case of `CC1(C)[C@@H](O)CC[C@]2(C)[C@H]3CC=C4[C@@H]5C[C@@](C)(C(=O)O)CC[C@]5(C)CC[C@@]4(C)[C@]3(C)CC[C@@H]12` [11-deoxoglycyrrhetinic acid], the DCA activity ([1]; Baran et al., J. Med. Chem. 1974) is listed as “does not substantially show the DCA activity”.
Molecule `CC1(C)[C@@H](OC(=O)/C=C\C(=O)O)CC[C@]2(C)[C@H]3CC=C4[C@@H]5C[C@@](C)(C(=O)O)CC[C@]5(C)CC[C@@]4(C)[C@]3(C)CC[C@@H]12` [Compound of the invention, sodium salt of 11-deoxoglycyrrhetinic acid hydrogen maleate] has a minimal effective dose ([2]; ip, intraperitoneal) of roughly 10 mg/kg, a minimal effective dose ([2]; oral) of roughly 300 mg/kg and a Percent inhibition ([2]; intraperitoneal, 5 mg/kg) of 17.1%. For the same molecule, the “Ulcer index (mean ± standard deviation)” value ([2]; intraperitoneal, 5 mg/kg) was 3.4 ± 0.84, the Percent inhibition ([2]; intraperitoneal, 10 mg/kg) was 65.9% and the “Ulcer index (mean ± standard deviation)” value ([2]; intraperitoneal, 10 mg/kg, P < 0.01) was 1.4 ± 0.51. The Percent inhibition ([2]; intraperitoneal, 20 mg/kg) was 70.7%, the “Ulcer index (mean ± standard deviation)” value ([2]; intraperitoneal, 20 mg/kg, P < 0.01) was 1.2 ± 0.20 and the Percent inhibition ([2]; intraperitoneal, 50 mg/kg) was 92.7%. For the same molecule, the “Ulcer index (mean ± standard deviation)” value ([2]; intraperitoneal, 50 mg/kg, P < 0.001) was 0.3 ± 0.21, the Percent inhibition ([2]; intravenous, 40 mg/kg) was 90.4% and the “Ulcer index (mean ± standard deviation)” value ([2]; intravenous, 40 mg/kg, P < 0.001) was 0.4 ± 0.19. For the same molecule, the Percent inhibition ([2]; oral, 100 mg/kg) was 36.0%, the “Ulcer index (mean ± standard deviation)” value ([2]; oral, 100 mg/kg) was 3.2 ± 0.97 and the Percent inhibition ([2]; oral, 300 mg/kg) was 80.0%. The “Ulcer index (mean ± standard deviation)” value ([2]; oral, 300 mg/kg, P < 0.01) was 1.0 ± 1.01, the Percent inhibition ([2]; oral, 500 mg/kg) was 84.0% and the “Ulcer index (mean ± standard deviation)” value ([2]; oral, 500 mg/kg, P < 0.001) was 0.8 ± 0.49. The “effect against ulcer induced by ligation of the pylorus” value ([2]; rat, in vivo) was “effective against ulcer induced by ligation of the pylorus”, the Percent inhibition ([2]; subcutaneous, 70 mg/kg) was 84.6% and the “Ulcer index (mean ± standard deviation)” value ([2]; subcutaneous, 70 mg/kg, P < 0.001) was 0.8 ± 0.90. For the same molecule, the “Ratio to the control group” value ([3]; 5 mm/kg (so in the source), intraperitoneal) was 1.18, the “Ratio to the control group” value ([3]; 15 mm/kg (so in the source), intraperitoneal) was 1.49 and the “Ratio to the control group” value ([3]; 100 mm/kg (so in the source), oral) was 1.40. The LD50 at 168 h ([4]; ip, intraperitoneal) was 67.8 mg/kg, the LD50 at 168 h ([4]; sc, subcutaneous) was 98.3 mg/kg and the LD50 at 168 h ([4]; intravenous) was 54.2 mg/kg. The LD50 at 168 h ([4]; oral) was greater than 6000 mg/kg, the Percent inhibition ([5]; intraperitoneal, 2 mg/kg) was 54.8% and the “Ulcer index (mean ± standard deviation)” value ([5]; intraperitoneal, 2 mg/kg, P < 0.001) was 1.40 ± 0.247. The “Ulcer index (mean ± standard deviation)” value ([5]; oral, 10 mg/kg) was 1.60 ± 0.699, the Percent inhibition ([5]; oral, 10 mg/kg, P < 0.001) was 40.7% and the “Ulcer index (mean ± standard deviation)” value ([5]; oral, 30 mg/kg) was 1.40 ± 0.699. For the same molecule, the Percent inhibition ([5]; oral, 30 mg/kg, P < 0.001) was 48.1%, the “Ulcer index (mean ± standard deviation)” value ([5]; oral, 50 mg/kg) was 1.00 ± 0.817 and the Percent inhibition [5, 8] was 63.0%. The significance of inhibition [5] was “significant inhibitions at P<0.001”, the “rank of percent inhibition” value ([5]; versus cetraxate hydrochloride and tissue respiration activator) was “highest” and the “Length of the erosion (mean ± standard deviation)” value ([6]; intraperitoneal, 20 mg/kg) was 19.25 ± 0.95 mm. The Percent inhibition ([6]; intraperitoneal, 20 mg/kg) was 70.3%, the Percent inhibition ([6]; oral, 100 mg/kg) was 87.5% and the “Length of the erosion (mean ± standard deviation)” value ([6]; oral, 100 mg/kg, P < 0.001) was 9.6 ± 4.80 mm. For the same molecule, the Percent inhibition ([6]; oral, 300 mg/kg) was 100.0%, the “Length of the erosion (mean ± standard deviation)” value [6, 9] was 0.0 ± 0.00 mm and the Percent inhibition ([6]; oral, 500 mg/kg) was 100.0%. For the same molecule, the “Length of the erosion (mean ± standard deviation)” value ([6]; oral, 500 mg/kg, P < 0.001) was 0.0 ± 0.00 mm, the “Length of the erosion (mean ± standard deviation)” value ([7]; intraperitoneal, 20 mg/kg) was 17.69 ± 8.08 mm and the Percent inhibition ([7]; intraperitoneal, 20 mg/kg) was 74.7%. The “Length of the erosion (mean ± standard deviation)” value ([7]; oral, 100 mg/kg) was 9.37 ± 3.22 mm, the Percent inhibition ([7]; oral, 100 mg/kg, P < 0.001) was 83.3% and the “Length of the erosion (mean ± standard deviation)” value ([7]; oral, 300 mg/kg) was 7.22 ± 3.06 mm. For the same molecule, the Percent inhibition [7, 10] was 87.1%, the “Length of the erosion (mean ± standard deviation)” value ([7]; oral, 500 mg/kg) was 5.63 ± 3.92 mm and the Percent inhibition ([7]; oral, 500 mg/kg, P < 0.001) was 90.0%.
In the case of `CC1(C)[C@@H](O)CC[C@]2(C)[C@H]3C(=O)C=C4[C@@H]5C[C@@](C)(C(=O)O)CC[C@]5(C)CC[C@@]4(C)[C@]3(C)CC[C@@H]12` [glycyrrhetinic acid], the “aldosterone (DCA)-like activity, sodium retention and potassium excretion” value [1] is listed as “have an aldosterone (DCA)-like activity and promote sodium retention and potassium excretion”.
For `NC[C@H]1CC[C@H](C(=O)Oc2ccc(CCC(=O)O)cc2)CC1` [Cetraxate hydrochloride, cetraxate hydrochloride, reference compound], the Percent inhibition ([5]; intraperitoneal, 20 mg/kg) was 49.5%, the “Ulcer index (mean ± standard deviation)” value ([5]; intraperitoneal, 20 mg/kg) was 1.60 ± 0.245 and the “Ulcer index (mean ± standard deviation)” value ([5]; oral, 50 mg/kg) was 1.90 ± 0.568. The Percent inhibition [5, 8] was 29.6%, the significance of inhibition [5] was “significant inhibitions at P<0.001” and the “Length of the erosion (mean ± standard deviation)” value ([6]; intraperitoneal, 200 mg/kg) was 56.08 ± 12.89 mm. For the same molecule, the Percent inhibition ([6]; intraperitoneal, 200 mg/kg) was 13.5%, the Percent inhibition ([6]; oral, 300 mg/kg) was 36.6% and the “Length of the erosion (mean ± standard deviation)” value [6, 9] was 48.6 ± 3.90 mm. For the same molecule, the “Length of the erosion (mean ± standard deviation)” value ([7]; intraperitoneal, 200 mg/kg) was 38.94 ± 8.22 mm, the Percent inhibition ([7]; intraperitoneal, 200 mg/kg) was 44.3% and the “Length of the erosion (mean ± standard deviation)” value ([7]; oral, 300 mg/kg) was 31.58 ± 7.59 mm. The Percent inhibition [7, 10] was 43.7%.
`CC1(C)[C@@H](OC(=O)CCC(=O)O)CC[C@]2(C)[C@H]3C(=O)C=C4[C@@H]5C[C@@](C)(C(=O)O)CC[C@]5(C)CC[C@@]4(C)[C@]3(C)CC[C@@H]12` [Carbenoxolone sodium, glycyrrhetinic acid hydrogen succinate sodium salt, reference compound] showed a Percent inhibition ([5]; oral, 300 mg/kg) of 12.6%.

Source: patent US4448788A, “11-Deoxoglycyrrhetinic acid hydrogen maleate, process for its production, and its use as a medicine” (priority 1981, dated 1984)
